Experimental data taken from patent US9005641B2, “Compositions and methods for preventing or reducing resistance of insects to insecticides” (Rothamsted Research Limited, priority 2002, dated 2015).

Experiments:
[1] = system: pyrethroid-resistant H. armigera larvae; test: Synergism studies: PBO pre-treatment before pyrethroid, larval mortality
Description: These involved a comparison of esterase inhibition (expressed as % of control, ± standard deviation) incurred by H. armigera larvae over time following topical application of 1 μl PBO (1%), and the effect on mortality of pyrethroid-resistant larvae when exposed to increasing PBO (1 μl, 1% PBO/larva) pre-treatment intervals before fenvalerate (1 μl, 0.125% fenvalerate/larva, FIG. 3) and zeta-cypermethrin (1 μl, 0.01% zeta-cypermethrin/larva, FIG. 4) exposure.

[2] = system: pyrethroid resistant second instar H. armigera larvae; test: Field trial on cotton, night sprays; assay type: in vivo, Helicoverpa armigera; details: one day after treatment; lambdacyhalothrin 15 g a.i./ha, PBO 320 g a.i./ha; strain 20 fold resistant
Description: In the lack of H. armigera pressure on cotton, pyrethroid resistant second instar H. armigera larvae, which were the progeny a field strain originating from Queensland, were placed on cotton plant. The strain was 20 fold resistant to lambdacyhalothrin.
Insecticides were mixed with water.
The trial was conducted on replicated, 1 row×2 m plots. Each plot contained from 13-17 mature cotton plants. There was an unsprayed buffer of two rows between each plot. Just prior to sunset, ten second instar H. armigera larvae were placed onto the terminals of each plant in the test plots and the plots sprayed. H. armigera numbers per plant were assessed one day after treatment. Temperature ranged from 24-26° C. The mean percentage mortality and standard deviation were calculated for each treatment.

## CC1(C)C(C=C(Cl)Cl)C1C(=O)OC(C#N)c1cccc(Oc2ccccc2)c1 (racemic) [zeta-cypermethrin, (S)-cyano(3-phenoxyphenyl)-methyl(±)-cis-trans-3-(2,2,-dichloroethenyl)-2,2-dimethylcyclo-propanecarboxylate]
[1]; 1 μl 0.01% zeta-cypermethrin/larva, PBO (1 μl, 1%) pre-treatment interval 4-10 hrs
  mortality (plateau): 100%

## CC(C)C(C(=O)OC(C#N)c1cccc(Oc2ccccc2)c1)c1ccc(Cl)cc1 (stereo not drawn) [fenvalerate, (R—(R*,S*)-4-chloro-α(1-methylethyl)benzeneacetic acid, cyano (3-phenoxyphenyl)methyl ester)]
[1]; 1 μl 0.125% fenvalerate/larva, PBO (1 μl, 1%) pre-treatment interval 4-5 hrs
  mortality (plateau): 100%

## CC1(C)[C@H](C(=O)O[C@H](C#N)c2cccc(Oc3ccccc3)c2)[C@@H]1/C=C(\Cl)C(F)(F)F [lambdacyhalothrin]
[2]
  mortality / control of H. armigera: ~40%
